Results: US12435044B2, “Pyridazinone herbicides and pyridazinone intermediates used to prepare a herbicide” (FMC Corporation, priority 2018, dated 2025)

How the values were obtained:
Format in all cases: in vivo
[1] = test system: foxtail, green (Setaria viridis); assay: Test A pre-/postemergence greenhouse test
Procedure, shortened: (§1)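 Postemergence crops and weeds were sprayed at the one- to two-leaf stage (2–10 cm), preemergence weeds via directed soil spray after sowing. After approximately 10 d in greenhouse, response was scored visually from 0 (no effect) to 100 (complete control).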

[2] = test system: barnyardgrass (Echinochloa crus-galli); assay: Test E pre-/postemergence greenhouse test
From the text: (§2) Seeds of plant species selected from corn (Zea mays), soybean (Glycine max), velvetleaf (Abutilon theophrasti), lambsquarters (Chenopodium album), poinsettia, wild (Euphorbia heterophylla), pigweed, palmer (Amaranthus palmeri), waterhemp (common waterhemp, Amaranthus rudis), surinam grass (Brachiaria decumbens), crabgrass, large (Digitaria sanguinalis), crabgrass, Brazil (Digitaria horizontalis), panicum, fall (Panicum dichotomiflorum), foxtail, giant (Setaria faberii), foxtail, green (Setaria viridis), goosegrass (Eleusine indica), johnsongrass (Sorghum halepense), ragweed (common ragweed, Ambrosia elatior), barnyardgrass (Echinochloa crus-galli), sandbur (southern sandbur, Cenchrus echinatus), arrowleaf sida (Sida rhombifolia), ryegrass, Italian (Lolium multiflorum), dayflower, VA (Virginia (VA) dayflower, Commelina virginica), field bindweed (Convolvulus arvensis), morningglory (Ipomoea coccinea), horseweed (Conyza canadensis), kochia (Kochia scoparia), nutsedge, yellow (Cyperus esculentus) and hairy beggarticks (Bidenspilosa), were planted into a silt loam soil and treated preemergence with test chemicals formulated in a non-phytotoxic solvent mixture which included a surfactant.
(§3) At the same time, plants selected from these crop and weed species and also waterhemp_RES1, (ALS & Triazine resistant common waterhemp, Amaranthus rudis), and waterhemp_RES2, (ALS & HPPD resistant common waterhemp, Amaranthus rudis) were planted in pots containing Redi-Earth® planting medium (Scotts Company, 14111 Scottslawn Road, Marysville, Ohio 43041) comprising spaghnum peat moss, vermiculite, wetting agent and starter nutrients were treated with postemergence applications of test chemicals formulated in the same manner. Plants ranged in height from 2 to 18 cm for postemergence treatments (1- to 4-leaf stage). Treated plants and controls were maintained in a greenhouse for 14 to 21 d, after which time all species were compared to controls and visually evaluated. Plant response ratings, summarized in Table E, are based on a scale of 0 to 100 where 0 is no effect and 100 is complete control. A dash (-) response means no test result.

[3] = test system: panicum, fall (Panicum dichotomiflorum); assay: Test E pre-/postemergence greenhouse test
From the text: as §2, §3

[4] = test system: surinam grass (Brachiaria decumbens); assay: Test E pre-/postemergence greenhouse test
From the text: as §2, §3

[5] = test system: pigweed, palmer (Amaranthus palmeri); assay: Test E pre-/postemergence greenhouse test
From the text: as §2, §3

[6] = test system: crabgrass, large (Digitaria sanguinalis); assay: Test E pre-/postemergence greenhouse test
From the text: as §2, §3

[7] = test system: ragweed (common ragweed, Ambrosia elatior); assay: Test E pre-/postemergence greenhouse test
From the text: as §2, §3

[8] = test system: corn (Zea mays); assay: Test E pre-/postemergence greenhouse test
From the text: as §2, §3

[9] = test system: foxtail, giant (Setaria faberii); assay: Test A pre-/postemergence greenhouse test
Procedure, shortened: as §1

## Cc1ccc2ccc(Cl)cc2c1-c1c(O)c(Cl)nn(C)c1=O [Cpd. No. 22]
[1]; Postemergence, 31 g ai/ha
  Plant response rating (0 to 100 scale): 100
[1]; Postemergence, 125 g ai/ha
  Plant response rating (0 to 100 scale): 100
[1]; Preemergence, 31 g ai/ha
  Plant response rating (0 to 100 scale): 90
[1]; Preemergence, 125 g ai/ha
  Plant response rating (0 to 100 scale): 100

## Cc1ccc2ccc(F)cc2c1-c1c(O)c(Cl)nn(C)c1=O [Cpd. No. 21]
[1]; Postemergence, 31 g ai/ha
  Plant response rating (0 to 100 scale): 90
[1]; Postemergence, 125 g ai/ha
  Plant response rating (0 to 100 scale): 100
[1]; Preemergence, 31 g ai/ha
  Plant response rating (0 to 100 scale): 70
[1]; Preemergence, 125 g ai/ha
  Plant response rating (0 to 100 scale): 100

## Cc1ccc2ccc(C)c(-c3c(O)c(Cl)nn(C)c3=O)c2c1 [Cpd. No. 20, 6-chloro-4-(2,7-dimethyl-1-naphthalenyl)-5-hydroxy-2-methyl-3(2H)-pyridazinone]
[2]; Preemergence, 16 g ai/ha
  Plant response rating, Barnyardgrass: 0
[2]; Preemergence, 31 g ai/ha
  Plant response rating, Barnyardgrass: 75
[2]; Preemergence, 62 g ai/ha
  Plant response rating, Barnyardgrass: 80
[2]; Preemergence, 125 g ai/ha
  Plant response rating, Barnyardgrass: 100
[3]; Postemergence, 16 g ai/ha
  Plant response rating, Panicum, Fall: 70
[3]; Postemergence, 31 g ai/ha
  Plant response rating, Panicum, Fall: 90
[3]; Postemergence, 62 g ai/ha
  Plant response rating, Panicum, Fall: 90
[3]; Postemergence, 125 g ai/ha
  Plant response rating, Panicum, Fall: 95
[3]; Preemergence, 16 g ai/ha
  Plant response rating, Panicum, Fall: 75
[3]; Preemergence, 31 g ai/ha
  Plant response rating, Panicum, Fall: 98
[3]; Preemergence, 62 g ai/ha
  Plant response rating, Panicum, Fall: 98
[3]; Preemergence, 125 g ai/ha
  Plant response rating, Panicum, Fall: 100
[4]; Preemergence, 16 g ai/ha
  Plant response rating, Surinam Grass: 35
[4]; Preemergence, 31 g ai/ha
  Plant response rating, Surinam Grass: 80
[4]; Preemergence, 62 g ai/ha
  Plant response rating, Surinam Grass: 90
[4]; Preemergence, 125 g ai/ha
  Plant response rating, Surinam Grass: 100
[5]; Postemergence, 16 g ai/ha
  Plant response rating, Pigweed, Palmer: 60
[5]; Postemergence, 31 g ai/ha
  Plant response rating, Pigweed, Palmer: 65
[5]; Postemergence, 62 g ai/ha
  Plant response rating, Pigweed, Palmer: 70
[5]; Postemergence, 125 g ai/ha
  Plant response rating, Pigweed, Palmer: 60
[5]; Preemergence, 16 g ai/ha
  Plant response rating, Pigweed, Palmer: 20
[5]; Preemergence, 31 g ai/ha
  Plant response rating, Pigweed, Palmer: 35
[5]; Preemergence, 62 g ai/ha
  Plant response rating, Pigweed, Palmer: 95
[5]; Preemergence, 125 g ai/ha
  Plant response rating, Pigweed, Palmer: 98
[6]; Preemergence, 16 g ai/ha
  Plant response rating, Crabgrass, Large: 65
[6]; Preemergence, 31 g ai/ha
  Plant response rating, Crabgrass, Large: 65
[6]; Preemergence, 62 g ai/ha
  Plant response rating, Crabgrass, Large: 75
[6]; Preemergence, 125 g ai/ha
  Plant response rating, Crabgrass, Large: 80
[7]; Postemergence, 16 g ai/ha
  Plant response rating, Ragweed: 90
[7]; Postemergence, 31 g ai/ha
  Plant response rating, Ragweed: 85
[7]; Postemergence, 62 g ai/ha
  Plant response rating, Ragweed: 95
[7]; Postemergence, 125 g ai/ha
  Plant response rating, Ragweed: 95
[7]; Preemergence, 16 g ai/ha
  Plant response rating, Ragweed: 60
[7]; Preemergence, 31 g ai/ha
  Plant response rating, Ragweed: 95
[7]; Preemergence, 62 g ai/ha
  Plant response rating, Ragweed: 95
[7]; Preemergence, 125 g ai/ha
  Plant response rating, Ragweed: 98
[8]; Postemergence, 16 g ai/ha
  Plant response rating, Corn: 5
[8]; Postemergence, 31 g ai/ha
  Plant response rating, Corn: 20
[8]; Postemergence, 62 g ai/ha
  Plant response rating, Corn: 10
[8]; Postemergence, 125 g ai/ha
  Plant response rating, Corn: 10
[8]; Preemergence, 16 g ai/ha
  Plant response rating, Corn: 0
[8]; Preemergence, 31 g ai/ha
  Plant response rating, Corn: 0
[8]; Preemergence, 62 g ai/ha
  Plant response rating, Corn: 0
[8]; Preemergence, 125 g ai/ha
  Plant response rating, Corn: 0
[9]; Postemergence, 31 g ai/ha
  Plant response rating (0 to 100 scale): 80
[9]; Postemergence, 125 g ai/ha
  Plant response rating (0 to 100 scale): 100
[9]; Preemergence, 31 g ai/ha
  Plant response rating (0 to 100 scale): 80
[9]; Preemergence, 125 g ai/ha
  Plant response rating (0 to 100 scale): 100

## Cc1cc(Cl)c2ccccc2c1-c1c(O)c(Cl)nn(C)c1=O [Cpd. No. 65]
[2]; Postemergence, 16 g ai/ha
  Plant response rating, Barnyardgrass: 80
[2]; Postemergence, 31 g ai/ha
  Plant response rating, Barnyardgrass: 88
[2]; Postemergence, 62 g ai/ha
  Plant response rating, Barnyardgrass: 93
[2]; Postemergence, 125 g ai/ha
  Plant response rating, Barnyardgrass: 95
[2]; Preemergence, 16 g ai/ha
  Plant response rating, Barnyardgrass: 0
[2]; Preemergence, 31 g ai/ha
  Plant response rating, Barnyardgrass: 40
[2]; Preemergence, 62 g ai/ha
  Plant response rating, Barnyardgrass: 38
[2]; Preemergence, 125 g ai/ha
  Plant response rating, Barnyardgrass: 60
[3]; Postemergence, 16 g ai/ha
  Plant response rating, Panicum, Fall: 80
[3]; Postemergence, 31 g ai/ha
  Plant response rating, Panicum, Fall: 88
[3]; Postemergence, 62 g ai/ha
  Plant response rating, Panicum, Fall: 93
[3]; Postemergence, 125 g ai/ha
  Plant response rating, Panicum, Fall: 93
[3]; Preemergence, 16 g ai/ha
  Plant response rating, Panicum, Fall: 75
[3]; Preemergence, 31 g ai/ha
  Plant response rating, Panicum, Fall: 99
[3]; Preemergence, 62 g ai/ha
  Plant response rating, Panicum, Fall: 100
[3]; Preemergence, 125 g ai/ha
  Plant response rating, Panicum, Fall: 99
[4]; Postemergence, 16 g ai/ha
  Plant response rating, Surinam Grass: 73
[4]; Postemergence, 31 g ai/ha
  Plant response rating, Surinam Grass: 78
[4]; Postemergence, 62 g ai/ha
  Plant response rating, Surinam Grass: 85
[4]; Postemergence, 125 g ai/ha
  Plant response rating, Surinam Grass: 93
[4]; Preemergence, 16 g ai/ha
  Plant response rating, Surinam Grass: 8
[4]; Preemergence, 31 g ai/ha
  Plant response rating, Surinam Grass: 92
[4]; Preemergence, 62 g ai/ha
  Plant response rating, Surinam Grass: 85
[4]; Preemergence, 125 g ai/ha
  Plant response rating, Surinam Grass: 100
[5]; Postemergence, 16 g ai/ha
  Plant response rating, Pigweed, Palmer: 35
[5]; Postemergence, 31 g ai/ha
  Plant response rating, Pigweed, Palmer: 43
[5]; Postemergence, 62 g ai/ha
  Plant response rating, Pigweed, Palmer: 68
[5]; Postemergence, 125 g ai/ha
  Plant response rating, Pigweed, Palmer: 55
[5]; Preemergence, 16 g ai/ha
  Plant response rating, Pigweed, Palmer: 40
[5]; Preemergence, 31 g ai/ha
  Plant response rating, Pigweed, Palmer: 58
[5]; Preemergence, 62 g ai/ha
  Plant response rating, Pigweed, Palmer: 80
[5]; Preemergence, 125 g ai/ha
  Plant response rating, Pigweed, Palmer: 90
[6]; Postemergence, 16 g ai/ha
  Plant response rating, Crabgrass, Large: 10
[6]; Postemergence, 31 g ai/ha
  Plant response rating, Crabgrass, Large: 13
[6]; Postemergence, 62 g ai/ha
  Plant response rating, Crabgrass, Large: 30
[6]; Postemergence, 125 g ai/ha
  Plant response rating, Crabgrass, Large: 35
[6]; Preemergence, 16 g ai/ha
  Plant response rating, Crabgrass, Large: 45
[6]; Preemergence, 31 g ai/ha
  Plant response rating, Crabgrass, Large: 18
[6]; Preemergence, 62 g ai/ha
  Plant response rating, Crabgrass, Large: 38
[6]; Preemergence, 125 g ai/ha
  Plant response rating, Crabgrass, Large: 48
[7]; Postemergence, 16 g ai/ha
  Plant response rating, Ragweed: 95
[7]; Postemergence, 31 g ai/ha
  Plant response rating, Ragweed: 93
[7]; Postemergence, 62 g ai/ha
  Plant response rating, Ragweed: 95
[7]; Postemergence, 125 g ai/ha
  Plant response rating, Ragweed: 93
[7]; Preemergence, 16 g ai/ha
  Plant response rating, Ragweed: 75
[7]; Preemergence, 31 g ai/ha
  Plant response rating, Ragweed: 99
[7]; Preemergence, 62 g ai/ha
  Plant response rating, Ragweed: 100
[7]; Preemergence, 125 g ai/ha
  Plant response rating, Ragweed: 100
[8]; Postemergence, 16 g ai/ha
  Plant response rating, Corn: 0
[8]; Postemergence, 31 g ai/ha
  Plant response rating, Corn: 20
[8]; Postemergence, 62 g ai/ha
  Plant response rating, Corn: 23
[8]; Postemergence, 125 g ai/ha
  Plant response rating, Corn: 35
[8]; Preemergence, 16 g ai/ha
  Plant response rating, Corn: 0
[8]; Preemergence, 31 g ai/ha
  Plant response rating, Corn: 5
[8]; Preemergence, 62 g ai/ha
  Plant response rating, Corn: 20
[8]; Preemergence, 125 g ai/ha
  Plant response rating, Corn: 43
[9]; Postemergence, 31 g ai/ha
  Plant response rating (0 to 100 scale): 100
[9]; Postemergence, 125 g ai/ha
  Plant response rating (0 to 100 scale): 100
[9]; Preemergence, 31 g ai/ha
  Plant response rating (0 to 100 scale): 100
[9]; Preemergence, 125 g ai/ha
  Plant response rating (0 to 100 scale): 100
